Measured values published in patent publication US20190142810A1, “MITOCHONDRIAL INHIBITORS FOR THE TREATMENT OF PROLIFERATION DISORDERS” (Basilea Pharmaceutica International AG, priority 2016, published 2019).

Experiments:
[1] = tested on: HeLa galactose cells; assay: Cell growth and proliferation assay of HeLa galactose cells (crystal violet); assay type: cell-based; conditions: Homo sapiens, HeLa, 72 h, 72 hours incubation, crystal violet staining, absorbance at 590 nm
Description: The cervical tumor cell line HeLa (ATCC, CCL-2) was cultivated in DMEM medium (Invitrogen cat. no. 11971, 4.5 g/L high glucose) containing 10% fetal calf serum (Sigma cat. no. F9665) and 1% Penicillin/Streptomycin (Sigma cat. no. P0781) at 37° C. in 5% CO2. HeLa galactose cells (i.e. HeLa cells that grow in high concentrations of galactose) were generated from HeLa glucose cells (i.e. HeLa cells that grow in high concentrations of glucose) by gradually changing the amount of glucose in the media to zero glucose in the presence of galactose as a sugar source (50% galactose/50% glucose media for one week, then 75% galactose/25% glucose media for one week, to 100% galactose media in the third week). Galactose media (Invitrogen cat. no. 11966) was supplemented with 10 mM galactose (Sigma cat. no. G5388).
Cell Growth and Proliferation Assay of HeLa Galactose and Glucose Cells
HeLa galactose cells and HeLa glucose cells were seeded in 96 well plates (TPP, cat. no 92696) at 2000 and 1500 cells/well, respectively, in 100 μL of complete medium. After overnight incubation the cells were incubated for 72 hours in complete medium containing 0.001% DMSO or compounds (final concentration of DMSO 0.001%). After the medium was removed, cells were fixed and stained by adding 50 μL crystal violet staining (0.2% crystal violet (Sigma-Aldrich cat. no. C0775) in 50% methanol) per well. The plates were incubated for 1 hour at room temperature. Subsequently the stain was decanted and plates were washed 4 times with de-mineralized water. Plates were air-dried for 2 hours. The stain was dissolved by adding 100 μL buffer (0.1 M Tris pH 7.5, 0.2% SDS, 20% ethanol) per well and shaking the plates. Absorbance at 590 nm was measured using a SpectraMax® 250 plate reader (Molecular Devices). Antiproliferative/growth inhibition IC50s were calculated from concentration-response curves using GraphPad Prism software.

[2] = tested on: Oxygen consumption (mitochondrial function); assay: Oxygen consumption assay (MitoXpress probe); assay type: cell-based; conditions: 5 h, MitoXpress probe signal, kinetic analysis at 37° C. for 5 hours, compared to untreated cells
From the text: Oxygen consumption is one of the most informative and direct measures of mitochondrial function and can be measured, for example, by using the MitoXpress® assay (Luxcel MX-2001, Luxcel Biosciences). The MitoXpress® probe is one of a family of phosphorescent oxygen sensitive probes. The assay exploits the ability of oxygen to quench the excited state of the MitoXpress® probe. As the test material respires (i.e. the cells), oxygen is depleted in the surrounding solution/environment, which increases the probe phosphorescence signal. Changes in oxygen consumption reflecting changes in mitochondrial activity are seen as changes in the MitoXpress® probe signal over time.
Cells were seeded in 96 well black plates with transparent bottoms (Greiner Bio-One cat. no. 655090) at a density of 50′000 cells/well in a final volume of 100 μL. After 24 hours the incubation media was removed and 150 μL of fresh media containing inhibitors at different concentrations was added to each well. Then, 10 μL of MitoXpress® and 150 μL mineral oil were added per well. Reading from the top of the plate, kinetic analysis was performed at 37° C. for 5 hours using a Synergy 4 plate reader (BioTek) and Time-resolved Fluoresence (TRF) wavelengths of 380/11 nm excitation and 650/20 nm emission or 665/40 emission (30 microsecond delay time, 100 microsecond integration time, gain or sensitivity settings set at either medium or high). IC50s were calculated as the concentration that inhibits 50% of the phosphorescent oxygen sensitive probe signal (MitoXpress®) as compared to untreated cells.

SMILES	IC50 [1]	IC50 [2]
Cc1nsc(NC(=O)N2CCC(=Cc3ccc(N4CCCC4)cc3F)CC2)n1 [Example 45, 4-[(2-fluoro-4-pyrrolidin-1-yl-phenyl)methylene]-N-(3-methyl-1,2,4-thiadiazol-5-yl)piperidine-1-carboxamide]	284 nM	440 nM
Cc1nsc(NC(=O)N2CCC(Cc3ccc(N(C)C)cc3F)CC2)n1 [Example 46]	47 nM	129 nM
Cc1nsc(NC(=O)N2CCC(=Cc3ccc(N(C)C)cc3F)CC2)n1 [Example 47, 4-[[4-(dimethylamino)-2-fluoro-phenyl]methylene]-N-(3-methyl-1,2,4-thiadiazol-5-yl)piperidine-1-carboxamide]	25 nM	67 nM
O=C(Nc1ncns1)N1CCC(Cc2ccc(Cl)cc2F)CC1 [Example 48]	146 nM	278 nM
Cc1nsc(NC(=O)N2CCCC(Cc3ccc(Cl)cc3F)CC2)n1 (stereo not shown) [Example 49, 4-[(4-chloro-2-fluoro-phenyl)methyl]-N-(3-methyl-1,2,4-thiadiazol-5-yl)azepane-1-carboxamide]	21 nM	58 nM
Cc1nsc(NC(=O)N2CCN(Cc3ccc(Cl)cc3F)CC2)n1 [Example 50, 4-[(4-chloro-2-fluoro-phenyl)methyl]-N-(3-methyl-1,2,4-thiadiazol-5-yl)piperazine-1-carboxamide]	197 nM	255 nM
Cc1nsc(NC(=O)N2CCCN(Cc3ccc(Cl)cc3F)CC2)n1 [Example 51]	67 nM	182 nM
Cc1nsc(NC(=O)N2CCC(=Cc3ccc(OC(F)(F)F)cc3)CC2)n1 [Example 52]	271 nM	477 nM
Cc1nsc(NC(=O)N2CCC(Cc3ccc(OC(F)(F)F)cc3)CC2)n1 [Example 53]	329 nM	890 nM
Cc1nsc(NC(=O)N2CCC(=Cc3ccc(OC(F)(F)F)cc3F)CC2)n1 [Example 54]	186 nM	235 nM
Cc1nsc(NC(=O)N2CCC(Cc3ccc(OC(F)(F)F)cc3F)CC2)n1 [Example 55]	202 nM	383 nM
Cc1nsc(NC(=O)N2CCC(Oc3ccc(OC(F)(F)F)cc3)CC2)n1 [Example 56]	736 nM	1250 nM
Cc1nsc(NC(=O)N2CCC(=Cc3ccc(F)cc3F)CC2)n1 [Example 59, 4-[(2,4-difluorophenyl)methylene]-N-(3-methyl-1,2,4-thiadiazol-5-yl)piperidine-1-carboxamide]	41 nM	43 nM
Cc1nsc(NC(=O)N2CCC(Cc3ccc(F)cc3F)CC2)n1 [Example 60, 4-[(2,4-difluorophenyl)methyl]-N-(3-methyl-1,2,4-thiadiazol-5-yl)piperidine-1-carboxamide]	53 nM	68 nM
Cc1nsc(NC(=O)N2CCC(Cc3ncc(Cl)cc3F)CC2)n1 [Example 62]	57 nM	122 nM
Cc1cc(NC(=O)N2CCC(Cc3ccc(Cl)cc3F)CC2)sn1 [Example 63, 4-[(4-chloro-2-fluoro-phenyl)methyl]-N-(3-methylisothiazol-5-yl)piperidine-1-carboxamide]	20 nM	56 nM
Cc1nsc(NC(=O)N2CCC(Cc3cc(C)c(Cl)cc3F)CC2)n1 [Example 64]	89 nM	187 nM
COc1cc(CC2CCN(C(=O)Nc3nc(C)ns3)CC2)c(F)cc1Cl [Example 65]	50 nM	126 nM

SMILES	IC50 [1]	IC50 [2]
Cc1nsc(NC(=O)N2CCC(Cc3c(F)cc(Cl)cc3Cl)CC2)n1 [Example 66]	67 nM	119 nM
Cc1nsc(NC(=O)N2CCC(=Cc3ncc(Cl)cc3F)CC2)n1 [Example 67]	125 nM	233 nM
COc1cc(F)c(CC2CCN(C(=O)Nc3nc(C)ns3)CC2)cn1 [Example 68]	100 nM	179 nM
COc1cc(F)c(C=C2CCN(C(=O)Nc3nc(C)ns3)CC2)cn1 [Example 69]	91 nM	119 nM
CCc1nsc(NC(=O)N2CCC(Cc3ccc(Cl)cc3F)CC2)n1 [Example 70, 4-[(4-chloro-2-fluoro-phenyl)methyl]-N-(3-ethyl-1,2,4-thiadiazol-5-yl)piperidine-1-carboxamide]	30 nM	65 nM
Cc1nccc(NC(=O)N2CCC(Cc3ccc(Cl)cc3F)CC2)n1 [Example 71]	227 nM	338 nM
Cc1cc(NC(=O)N2CCC(Cc3ccc(Cl)cc3F)CC2)ccn1 [Example 72, 4-[(4-chloro-2-fluoro-phenyl)methyl]-N-(2-methyl-4-pyridyl)piperidine-1-carboxamide]	34 nM	68 nM
Cc1nsc(NC(=O)N2CCC(C(=O)c3ccc(Cl)cc3)CC2)n1 [Example 74, 4-(4-chlorobenzoyl)-N-(3-methyl-1,2,4-thiadiazol-5-yl)piperidine-1-carboxamide]	34 nM	51 nM
Cc1nsc(NC(=O)N2CCC(C(=O)c3ccc(F)cc3F)CC2)n1 [Example 75, 4-(2,4-difluorobenzoyl)-N-(3-methyl-1,2,4-thiadiazol-5-yl)piperidine-1-carboxamide]	54 nM	59 nM
COc1ccc(C(=O)C2CCN(C(=O)Nc3nc(C)ns3)CC2)cc1 [Example 76]	190 nM	332 nM
Cc1nsc(NC(=O)N2CCC(C(=O)c3ccc(Br)cc3)CC2)n1 [Example 77, 4-(4-bromobenzoyl)-N-(3-methyl-1,2,4-thiadiazol-5-yl)piperidine-1-carboxamide]	48 nM	54 nM
O=C(Nc1nc(CCO)ns1)N1CCC(=Cc2ccc(Cl)cc2F)CC1 [Example 78, 4-[(4-chloro-2-fluoro-phenyl)methylene]-N-[3-(2-hydroxyethyl)-1,2,4-thiadiazol-5-yl]piperidine-1-carboxamide]	163 nM	267 nM
O=C(Nc1nc(CCN2CCOCC2)ns1)N1CCC(=Cc2ccc(Cl)cc2F)CC1 [Example 79, 4-[(4-chloro-2-fluoro-phenyl)methylene]-N-[3-(2-morpholinoethyl)-1,2,4-thiadiazol-5-yl]piperidine-1-carboxamide]	279 nM	378 nM
N#CCCc1nsc(NC(=O)N2CCC(=Cc3ccc(Cl)cc3F)CC2)n1 [Example 80, 4-[(4-chloro-2-fluoro-phenyl)methylene]-N-[3-(2-cyanoethyl)-1,2,4-thiadiazol-5-yl]piperidine-1-carboxamide]	134 nM	108 nM
Cc1nsc(NC(=O)N2CC/C(=C\c3ccc(Cl)cc3F)C(C)C2)n1 (stereo not shown) [Example 82, (4E)-4-[(4-chloro-2-fluoro-phenyl)methylene]-3-methyl-N-(3-methyl-1,2,4-thiadiazol-5-yl)piperidine-1-carboxamide]	31 nM	78 nM
Cc1nsc(NC(=O)N2CC/C(=C/c3ccc(Cl)cc3F)C(C)C2)n1 (stereo not shown) [Example 83, (4Z)-4-[(4-chloro-2-fluoro-phenyl)methylene]-3-methyl-N-(3-methyl-1,2,4-thiadiazol-5-yl)piperidine-1-carboxamide]	115 nM	329 nM
Cc1nsc(NC(=O)N2CC/C(=C\c3ccc(Cl)cc3F)C(C)(C)C2)n1 [Example 85, (4E)-4-[(4-chloro-2-fluoro-phenyl)methylene]-3,3-dimethyl-N-(3-methyl-1,2,4-thiadiazol-5-yl)piperidine-1-carboxamide]	38 nM	83 nM
